This experiment has as its target T1, KATP channels (Homo sapiens, UniProt O60706).
T1 construct: TE671 human medulloblastoma cells were obtained from ATCC; host or cells: TE671 human medulloblastoma cells
Put plainly: Potassium Channel Assay (FLIPR membrane potential, KATP channel opening). The settings on record: TE671 human medulloblastoma cells, Membrane Potential Assay Dye, room temperature. In kind it is cell-based. As to the method:
TE671 human medulloblastoma cells were obtained from ATCC and grown in Dulbecco's modified Eagle's medium (DMEM) supplemented with 10% fetal bovine serum, 100 U/ml penicillin and 100 U/ml streptomycine.
The day before testing, the cells were plated in black 96-well plates at 50K/well. On the day of testing, the growth media was removed, then 100 μl of FLIPR buffer (20 mM HEPES, 120 mM NaCl, 2 mM KCl, 2 mM CaCl2, 1 mM MgCl2, 5 mM Glucose) and 100 μl of Membrane Potential Assay Dye (Molecular Devices) dissolved in FLIPR buffer were added to each well. The cells were incubated at room temperature for 15 to 30 min.
The effect of test compounds on KATP channels were evaluated on a fluorometric imaging plate reader (FLIPR, Molecular Devices) at room temperature. After a baseline period, 50 μl of 5× stock solution of test compound prepared in FLIPR buffer was added and fluorescence change was monitored for 3 minutes. After this reading, glyburide, a KATP channel blocker, was added to a final concentration of 5 μM to check the specificity of the test compound as a KATP channel opener. Hyperpolarization resulting from KATP channel opening was observed as a decrease in fluorescence intensity.

A value given as a limit tells only on which side of the number the result lay.

T1 sequence (O60706 1-1549 isoform O60706-2): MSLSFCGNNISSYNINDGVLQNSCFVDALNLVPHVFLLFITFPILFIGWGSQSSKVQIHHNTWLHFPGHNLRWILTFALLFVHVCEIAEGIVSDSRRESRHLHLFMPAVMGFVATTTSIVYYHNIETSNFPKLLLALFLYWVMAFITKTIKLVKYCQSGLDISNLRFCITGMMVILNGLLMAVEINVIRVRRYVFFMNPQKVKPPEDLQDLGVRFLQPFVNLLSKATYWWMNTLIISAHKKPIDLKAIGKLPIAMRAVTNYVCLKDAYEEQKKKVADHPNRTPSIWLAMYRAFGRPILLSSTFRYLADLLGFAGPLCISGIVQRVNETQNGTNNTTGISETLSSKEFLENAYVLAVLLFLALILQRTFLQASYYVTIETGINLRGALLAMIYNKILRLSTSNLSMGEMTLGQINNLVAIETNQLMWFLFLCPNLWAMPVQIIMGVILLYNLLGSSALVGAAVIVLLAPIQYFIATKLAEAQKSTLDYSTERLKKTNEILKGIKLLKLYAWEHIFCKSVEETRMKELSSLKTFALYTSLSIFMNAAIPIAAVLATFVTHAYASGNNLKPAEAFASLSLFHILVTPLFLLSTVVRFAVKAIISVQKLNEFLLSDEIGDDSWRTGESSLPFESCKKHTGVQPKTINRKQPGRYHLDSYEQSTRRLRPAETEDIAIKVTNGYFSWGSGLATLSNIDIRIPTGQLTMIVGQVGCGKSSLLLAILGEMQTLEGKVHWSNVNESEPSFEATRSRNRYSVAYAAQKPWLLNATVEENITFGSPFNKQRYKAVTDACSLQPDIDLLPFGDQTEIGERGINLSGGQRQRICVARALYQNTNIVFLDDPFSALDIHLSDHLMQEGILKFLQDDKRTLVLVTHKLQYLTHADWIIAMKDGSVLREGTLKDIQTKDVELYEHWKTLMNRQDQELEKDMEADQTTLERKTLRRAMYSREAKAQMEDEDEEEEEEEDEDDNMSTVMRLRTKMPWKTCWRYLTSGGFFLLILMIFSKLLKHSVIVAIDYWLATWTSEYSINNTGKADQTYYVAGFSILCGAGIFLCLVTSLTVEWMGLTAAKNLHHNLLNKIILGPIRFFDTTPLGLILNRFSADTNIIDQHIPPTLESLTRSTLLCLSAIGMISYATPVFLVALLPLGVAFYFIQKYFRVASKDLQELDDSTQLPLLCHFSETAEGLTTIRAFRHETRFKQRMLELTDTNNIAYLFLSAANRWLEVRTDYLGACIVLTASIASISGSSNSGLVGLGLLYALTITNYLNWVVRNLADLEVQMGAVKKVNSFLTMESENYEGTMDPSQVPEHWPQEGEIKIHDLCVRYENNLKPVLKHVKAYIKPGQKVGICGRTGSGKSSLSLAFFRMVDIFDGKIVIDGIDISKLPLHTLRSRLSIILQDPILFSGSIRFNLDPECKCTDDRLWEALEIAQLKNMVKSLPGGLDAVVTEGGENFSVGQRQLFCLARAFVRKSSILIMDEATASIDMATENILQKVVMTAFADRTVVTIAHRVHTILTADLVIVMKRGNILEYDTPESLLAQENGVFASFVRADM
T1 sequence (Q14654 whole entry partner): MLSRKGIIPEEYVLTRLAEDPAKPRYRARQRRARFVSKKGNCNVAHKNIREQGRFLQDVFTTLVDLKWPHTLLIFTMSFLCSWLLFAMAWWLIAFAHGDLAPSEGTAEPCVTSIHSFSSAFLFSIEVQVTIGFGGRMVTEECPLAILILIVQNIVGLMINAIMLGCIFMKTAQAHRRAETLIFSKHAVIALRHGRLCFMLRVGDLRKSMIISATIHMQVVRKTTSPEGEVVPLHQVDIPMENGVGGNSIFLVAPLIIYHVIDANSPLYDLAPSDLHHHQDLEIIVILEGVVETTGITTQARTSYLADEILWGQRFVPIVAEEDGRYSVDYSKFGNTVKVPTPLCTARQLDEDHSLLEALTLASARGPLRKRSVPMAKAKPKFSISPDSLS

As to `Cc1cc(C)c(C(O)c2cnccc2-c2cccc(C#N)c2)c(C)c1` (stereo not drawn) [Compound 35, 3-{3-[Hydroxy-(2,4,6-trimethyl-phenyl)-methyl]-pyridin-4-yl}-benzonitrile], the EC50 is above 30 µM. On the same count and under the same terms, then `COc1ccc(F)cc1C(O)c1cnccc1-c1cccc(C#N)c1` (stereo not drawn) [Compound 36, 3-{3-[(5-Fluoro-2-methoxy-phenyl)-hydroxy-methyl]-pyridin-4-yl}-benzonitrile], with above 30 µM; and `COc1ccc(C(O)c2cnccc2-c2cccc(C#N)c2)cc1F` (stereo not drawn) [Compound 37, 3-{3-[(3-Fluoro-4-methoxy-phenyl)-hydroxy-methyl]-pyridin-4-yl}-benzonitrile], with 9.59 µM; and `Cc1ccc(F)cc1C(O)c1cnccc1-c1cccc(C#N)c1` (stereo not drawn) [Compound 38, 3-{3-[(5-Fluoro-2-methyl-phenyl)-hydroxy-methyl]-pyridin-4-yl}-benzonitrile], with above 30 µM.

The compound `N#Cc1cccc(-c2ccncc2C(O)C(F)(F)F)c1` (stereo not drawn) [Compound 39, 3-[3-(2,2,2-Trifluoro-1-hydroxy-ethyl)-pyridin-4-yl]-benzonitrile] registered an EC50 of 10.5 µM. The compound `O=C(c1ccccc1)c1ccncc1C(O)c1ccccc1` (stereo not drawn) [Compound 43, [3-(Hydroxy-phenyl-methyl)-pyridin-4-yl]-phenyl-methanone] registered an EC50 of 17.4 µM. In the case of `CN(C)c1ccc(C(O)c2cnccc2C(=O)c2ccccc2)cc1` (stereo not drawn) [Compound 44, {3-[(4-Dimethylamino-phenyl)-hydroxy-methyl]-pyridin-4-yl}-phenyl-methanone], the EC50 came out at 17.4 µM. This counts as double-digit micromolar. Same read-out and setting: under `COc1ccc(C(O)c2cnccc2C(=O)c2ccccc2)cc1F` (stereo not drawn) [Compound 45, {3-[(3-Fluoro-4-methoxy-phenyl)-hydroxy-methyl]-pyridin-4-yl}-phenyl-methanone] stands 11.6 µM; under `COc1ccc(OC)c(C(O)c2cnccc2C(=O)c2ccccc2)c1` (stereo not drawn) [Compound 46, {3-[(2,5-Dimethoxy-phenyl)-hydroxy-methyl]-pyridin-4-yl}-phenyl-methanone], 12.1 µM. Same read-out and setting: then `O=C(c1ccccc1)c1ccncc1C(O)c1cccc(F)c1` (stereo not drawn) [Compound 47, {3-[(3-Fluoro-phenyl)-hydroxy-methyl]-pyridin-4-yl}-phenyl-methanone], with 5.09 µM. Still for that read-out and setting: under `N#Cc1cccc(C(=O)c2ccncc2C(O)c2ccccc2)c1` (stereo not drawn) [Compound 48, 3-[3-(Hydroxy-phenyl-methyl)-pyridine-4-carbonyl]-benzonitrile] stands 14.3 µM; under `N#Cc1cccc(-c2ccncc2CO)c1` [Compound 50, 3-(3-Hydroxymethyl-pyridin-4-yl)-benzonitrile], above 30 µM. `N#Cc1cccc(-c2ccncc2C=O)c1` [Compound 51, 3-(3-Formyl-pyridin-4-yl)-benzonitrile] had an EC50 above 30 µM. Still for that read-out and setting: under `CC(O)c1cnccc1-c1cccc(C#N)c1` (stereo not drawn) [Compound 52, 3-[3-(1-Hydroxy-ethyl)-pyridin-4-yl]-benzonitrile] stands 17.2 µM. The compound `COc1ccc(C=O)cc1-c1ccncc1C=O` [Compound 53, 4-(5-Formyl-2-methoxy-phenyl)-pyridine-3-carbaldehyde] showed an EC50 above 30 µM. In addition, the “% Stimulation” value (test concentration not given) came out at 30%. With `N#Cc1cccc(C2OC(O)c3cnccc32)c1` (stereo not drawn) [Compound 55, 3-(3-Hydroxy-1,3-dihydro-furo[3,4-c]pyridin-1-yl)-benzonitrile], the EC50 is above 30 µM. The compound `OCc1cnccc1C(O)c1ccccc1` (stereo not drawn) [Compound 56, (3-Hydroxymethyl-pyridin-4-yl)-phenyl-methanol] had an EC50 above 30 µM. Consider `N#Cc1cccc(C(O)c2ccncc2CO)c1` (stereo not drawn) [Compound 57, 3-[Hydroxy-(3-hydroxymethyl-pyridin-4-yl)-methyl]-benzonitrile], for which the EC50 was above 30 µM. The same measure, in the same setting: then `COc1ccc(CO)cc1-c1ccncc1CO` [Compound 58], with above 30 µM; and `CC(O)c1cnccc1C(=O)c1ccccc1` (stereo not drawn) [Compound 59, [3-(1-Hydroxy-ethyl)-pyridin-4-yl]-phenyl-methanone], with 26.8 µM; and `CC(C)C(O)c1cnccc1Br` (stereo not drawn) [Compound 63, 1-(4-Bromo-pyridin-3-yl)-2-methyl-propan-1-ol], with 7.97 µM.

`OC1OC(c2ccccc2)c2ccncc21` (stereo not drawn) [Compound 65, 1-Phenyl-1,3-dihydro-furo[3,4-c]pyridin-3-ol] displayed an EC50 above 30 µM. Consider `N#Cc1cccc(C2OCc3cnccc32)c1` (stereo not drawn) [Compound 66, 3-(1,3-Dihydro-furo[3,4-c]pyridin-1-yl)-benzonitrile], for which the EC50 was determined as 8.19 µM. This lies in the single-digit micromolar range.

The term EC50 denotes the concentration that produces a half-maximal response. A high value points to a need for much substance.

The record behind these values is US7790895B2, “Quinoline derivatives as potassium ion channel openers” (Janssen Pharmaceutica NV, priority 2005, dated 2010).
